Assay results: patent US20210169892A1, “MODULATORS OF THE INTEGRATED STRESS PATHWAY” (Calico Life Sciences LLC, priority 2017, published 2021)

Test system: HEK293T cells carrying the ATF4 luciferase reporter
Assay: ATF4-Luc assay (in vitro model of vanishing white matter disease)
Format: cell-based
Details: Homo sapiens, HEK-293T; HEK293T cells with ATF4 luciferase reporter, 1 μg/mL tunicamycin, 7 hours, One Glo luminescence
Outline: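 Stable HEK293T line with human ATF4 5′-UTR–firefly luciferase reporter treated with 1 μg/mL tunicamycin plus 200 nM compound for 7 h. Luminescence read; EC50 derived.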

Compound | EC50 [nM]
C[C@]1(C(=O)NC23CC(NC(=O)COc4ccc(Cl)c(F)c4)(C2)C3)COc2cc3c(cc21)OC(F)(F)O3 [Compound 131, (7R)—N-{3-[2-(4-chloro-3-fluorophenoxy)acetamido]bicyclo[1.1.1]pentan-1-yl}-2,2-difluoro-7-methyl-6,7-dihydro-2H-furo[2,3-f][1,3]benzodioxole-7-carboxamide] | 500 to 2000
O=C(COc1ccc(Cl)c(F)c1)NC12CC(NC(=O)C3CN(C(=O)c4ccc(S(=O)(=O)F)cc4)c4cc(Cl)ccc4O3)(C1)C2 (stereo not shown) [Compound 147, 4-[6-chloro-2-({3-[2-(4-chloro-3-fluorophenoxy)acetamido]bicyclo[1.1.1]pentan-1-yl}carbamoyl)-2,3-dihydro-4H-1,4-benzoxazine-4-carbonyl]benzene-1-sulfonyl fluoride] | 500 to 2000
O=C(COc1ccc(Cl)c(F)c1)NC12CC(NC(=O)C3CN(C(=O)CCCC(F)(F)F)c4cc(Cl)ccc4O3)(C1)C2 (stereo not shown) [Compound 167, 6-chloro-N-{3-[2-(4-chloro-3-fluorophenoxy)acetamido]bicyclo[1.1.1]pentan-1-yl}-4-(5,5,5-trifluoropentanoyl)-3,4-dihydro-2H-1,4-benzoxazine-2-carboxamide] | 250 to 500
COC(=O)CNC1CC(C(=O)NC23CC(NC(=O)COc4ccc(Cl)c(F)c4)(C2)C3)Oc2ccc(Cl)cc21 (stereo not shown) [Compound 189, methyl {[6-chloro-2-({3-[2-(4-chloro-3-fluorophenoxy)acetamido]bicyclo[1.1.1]pentan-1-yl}carbamoyl)-3,4-dihydro-2H-1-benzopyran-4-yl]amino}acetate] | 10 to 50
CC1(C(=O)N2CC(C(=O)NC34CC(NC(=O)COc5ccc(Cl)c(F)c5)(C3)C4)Oc3ccc(Cl)cc32)CC1(F)F (stereo not shown) [Compound 179, 6-chloro-N-{3-[2-(4-chloro-3-fluorophenoxy)acetamido]bicyclo[1.1.1]pentan-1-yl}-4-(2,2-difluoro-1-methylcyclopropane-1-carbonyl)-3,4-dihydro-2H-1,4-benzoxazine-2-carboxamide] | 500 to 2000
O=C(COc1ccc(Cl)c(F)c1)NC12CC(NC(=O)C3CN(C(=O)C(F)(F)C(F)(F)F)c4cc(Cl)ccc4O3)(C1)C2 (stereo not shown) [Compound 178, 6-chloro-N-{3-[2-(4-chloro-3-fluorophenoxy)acetamido]bicyclo[1.1.1]pentan-1-yl}-4-(2,2,3,3,3-pentafluoropropanoyl)-3,4-dihydro-2H-1,4-benzoxazine-2-carboxamide] | < 10
Cc1ccc(C(=O)N2CC(C(=O)NC34CC(NC(=O)COc5ccc(Cl)c(F)c5)(C3)C4)Oc3ccc(Cl)cc32)o1 (stereo not shown) [Compound 145, 6-chloro-N-{3-[2-(4-chloro-3-fluorophenoxy)acetamido]bicyclo[1.1.1]pentan-1-yl}-4-(5-methylfuran-2-carbonyl)-3,4-dihydro-2H-1,4-benzoxazine-2-carboxamide] | 50 to 250
O=C(COc1ccc(Cl)c(F)c1)NC12CC(NC(=O)C3CN(C(=O)c4ccno4)c4cc(Cl)ccc4O3)(C1)C2 (stereo not shown) [Compound 154, 6-chloro-N-{3-[2-(4-chloro-3-fluorophenoxy)acetamido]bicyclo[1.1.1]pentan-1-yl}-4-(1,2-oxazole-5-carbonyl)-3,4-dihydro-2H-1,4-benzoxazine-2-carboxamide] | < 10
O=C(COc1ccc(Cl)c(F)c1)NC12CCC(NC(=O)[C@@H]3COc4ccccc4O3)(CC1)[C@@H](O)C2 [Compound 127, (2S)—N-{(2S)-4-[2-(4-chloro-3-fluorophenoxy)acetamido]-2-hydroxybicyclo[2.2.2]octan-1-yl}-2,3-dihydro-1,4-benzodioxine-2-carboxamide] | 10 to 50
O=C(COc1ccc(Cl)c(F)c1)NC12CC(NC(=O)C3CCc4cc(Cl)ccc4O3)(C1)C2 (stereo not shown) [Compound 204, 6-chloro-N-{3-[2-(4-chloro-3-fluorophenoxy)acetamido]bicyclo[1.1.1]pentan-1-yl}-3,4-dihydro-2H-1-benzopyran-2-carboxamide] | < 10
Cn1cnc(S(=O)(=O)N2CC(C(=O)NC34CC(NC(=O)COc5ccc(Cl)c(F)c5)(C3)C4)Oc3ccc(Cl)cc32)c1 (stereo not shown) [Compound 165, 6-chloro-N-{3-[2-(4-chloro-3-fluorophenoxy)acetamido]bicyclo[1.1.1]pentan-1-yl}-4-(1-methyl-1H-imidazole-4-sulfonyl)-3,4-dihydro-2H-1,4-benzoxazine-2-carboxamide] | 10 to 50
O=C(COc1ccc(Cl)c(F)c1)NC12CC(NC(=O)[C@H]3CN(C(=O)[C@H]4C[C@H]4F)c4cc(Cl)ccc4O3)(C1)C2 (single isomer, unassigned) [Compound 142] | 50 to 250
O=C(COc1ccc(Cl)c(F)c1)NC12CCC(NC(=O)[C@@H]3CCc4cc(F)ccc4O3)(CC1)[C@@H](O)C2 [Compound 201, (2S)—N-{(2S)-4-[2-(4-chloro-3-fluorophenoxy)acetamido]-2-hydroxybicyclo[2.2.2]octan-1-yl}-6-fluoro-3,4-dihydro-2H-1-benzopyran-2-carboxamide] | < 10
O=C(COc1ccc(Cl)c(F)c1)NC12CC(NC(=O)[C@H]3CNc4cc(Cl)ccc4O3)(C1)C2 (single isomer, unassigned) [Compound 102] | < 10
O=C(COc1ccc(Cl)c(F)c1)NC12CC(NC(=O)C3CN(C(=O)[C@H]4C[C@@H]4F)c4cc(Cl)ccc4O3)(C1)C2 (stereo partly drawn) [Compound 138, 6-chloro-N-{3-[2-(4-chloro-3-fluorophenoxy)acetamido]bicyclo[1.1.1]pentan-1-yl}-4-[(1R,2S)-2-fluorocyclopropane-1-carbonyl]-3,4-dihydro-2H-1,4-benzoxazine-2-carboxamide] | 250 to 500
O=C(COc1ccc(Cl)c(F)c1)NC12CC(NC(=O)[C@@H]3C[C@H](O)c4cc(Cl)ccc4O3)(C1)C2 (single isomer, unassigned) [Compound 195] | < 10
O=C(COc1ccc(Cl)c(F)c1)NC12CC(NC(=O)[C@@H]3CNc4cc(Cl)ccc4O3)(C1)C2 (single isomer, unassigned) [Compound 103] | < 10
O=C(COc1ccc(Cl)c(F)c1)NC12CC(NC(=O)C3COc4ccccc4O3)(C1)C2 (stereo not shown) [Compound 122, N-{3-[2-(4-chloro-3-fluorophenoxy)acetamido]bicyclo[1.1.1]pentan-1-yl}-2,3-dihydro-1,4-benzodioxine-2-carboxamide] | 10 to 50
COC(C)(C)CN1CC(C(=O)NC23CC(NC(=O)COc4ccc(Cl)c(F)c4)(C2)C3)Oc2ccc(Cl)cc21 (stereo not shown) [Compound 187, 6-chloro-N-{3-[2-(4-chloro-3-fluorophenoxy)acetamido]bicyclo[1.1.1]pentan-1-yl}-4-(2-methoxy-2-methylpropyl)-3,4-dihydro-2H-1,4-benzoxazine-2-carboxamide] | 10 to 50
CN1C[C@@H](C(=O)NC23CC(NC(=O)COc4ccc(Cl)c(F)c4)(C2)C3)Oc2ccc(Cl)cc21 (single isomer, unassigned) [Compound 104] | < 10
O=C(COc1ccc(Cl)c(F)c1)NC12CC(NC(=O)C3CC(NCCO)c4cc(Cl)ccc4O3)(C1)C2 (stereo not shown) [Compound 188, 6-chloro-N-{3-[2-(4-chloro-3-fluorophenoxy)acetamido]bicyclo[1.1.1]pentan-1-yl}-4-[(2-hydroxyethyl)amino]-3,4-dihydro-2H-1-benzopyran-2-carboxamide] | 10 to 50
O=C(COc1ccc(Cl)c(F)c1)NC12CC(NC(=O)[C@@H]3COc4ccccc4O3)(C1)C2 [Compound 125, (2S)—N-{3-[2-(4-chloro-3-fluorophenoxy)acetamido]bicyclo[1.1.1]pentan-1-yl}-2,3-dihydro-1,4-benzodioxine-2-carboxamide] | 50 to 250
O=C(COc1ccc(Cl)c(F)c1)NC12CC(NC(=O)C3COc4cc(F)c(F)cc4O3)(C1)C2 (stereo not shown) [Compound 118, N-{3-[2-(4-chloro-3-fluorophenoxy)acetamido]bicyclo[1.1.1]pentan-1-yl}-6,7-difluoro-2,3-dihydro-1,4-benzodioxine-2-carboxamide] | < 10
O=C(COc1ccc(Cl)c(F)c1)NC12CC(NC(=O)C3CN(C(=O)[C@@H]4C[C@@H]4F)c4cc(Cl)ccc4O3)(C1)C2 (stereo partly drawn) [Compound 175, 6-chloro-N-{3-[2-(4-chloro-3-fluorophenoxy)acetamido]bicyclo[1.1.1]pentan-1-yl}-4-[(1S,2S)-2-fluorocyclopropane-1-carbonyl]-3,4-dihydro-2H-1,4-benzoxazine-2-carboxamide] | 250 to 500
CSCCC(=O)N1CC(C(=O)NC23CC(NC(=O)COc4ccc(Cl)c(F)c4)(C2)C3)Oc2ccc(Cl)cc21 (stereo not shown) [Compound 162, 6-chloro-N-{3-[2-(4-chloro-3-fluorophenoxy)acetamido]bicyclo[1.1.1]pentan-1-yl}-4-[3-(methylsulfanyl)propanoyl]-3,4-dihydro-2H-1,4-benzoxazine-2-carboxamide] | 50 to 250
O=C(COc1ccc(Cl)c(F)c1)NC12CC(NC(=O)C3CN(C(=O)C(F)(F)C(F)F)c4cc(Cl)ccc4O3)(C1)C2 (stereo not shown) [Compound 161, 6-chloro-N-{3-[2-(4-chloro-3-fluorophenoxy)acetamido]bicyclo[1.1.1]pentan-1-yl}-4-(2,2,3,3-tetrafluoropropanoyl)-3,4-dihydro-2H-1,4-benzoxazine-2-carboxamide] | < 10
O=C(NC12CC(NC(=O)C3COc4cc(Cl)c(Cl)cc4O3)(C1)C2)c1cnc(C(F)F)cn1 (stereo not shown) [Compound 133, N-{3-[(6,7-dichloro-2,3-dihydro-1,4-benzodioxine-2-carbonyl)amino]bicyclo[1.1.1]pentan-1-yl}-5-(difluoromethyl)pyrazine-2-carboxamide] | 10 to 50
O=C(COc1ccc(Cl)c(F)c1)NC12CC(NC(=O)C3CN(C(=O)C4CCOC4)c4cc(Cl)ccc4O3)(C1)C2 (stereo not shown) [Compound 152, 6-chloro-N-{3-[2-(4-chloro-3-fluorophenoxy)acetamido]bicyclo[1.1.1]pentan-1-yl}-4-(oxolane-3-carbonyl)-3,4-dihydro-2H-1,4-benzoxazine-2-carboxamide] | 250 to 500
